Source: US6620828B2, “Thiazole compounds and pharmaceutical compositions for inhibiting protein kinases and methods for their use” (Agouron Pharmaceuticals, Inc., priority 1999, dated 2003)
Where “and” joins values, the source holds several entries; their conditions need not be identical. Identical values can stand only once. Like-named read-outs stand apart in the source and are kept apart here.

Experiments:
[1] = target: T1, phosphorylated VEGF-R2Δ50 (FLVK-P) (Homo sapiens, UniProt P35968, DEL940-989/E990V); assay: VEGF-R2 coupled spectrophotometric (FLVK-P) assay; format: biochemical; details: spectrophotometric assay
T1 construct: VEGF-R2Δ50 contains residues 806-939 and 990-1171; made in house; host or cells: baculovirus/insect cells
T1 sequence (P35968 with tags, fused parts or gaps DEL940-989/E990V limits assumed): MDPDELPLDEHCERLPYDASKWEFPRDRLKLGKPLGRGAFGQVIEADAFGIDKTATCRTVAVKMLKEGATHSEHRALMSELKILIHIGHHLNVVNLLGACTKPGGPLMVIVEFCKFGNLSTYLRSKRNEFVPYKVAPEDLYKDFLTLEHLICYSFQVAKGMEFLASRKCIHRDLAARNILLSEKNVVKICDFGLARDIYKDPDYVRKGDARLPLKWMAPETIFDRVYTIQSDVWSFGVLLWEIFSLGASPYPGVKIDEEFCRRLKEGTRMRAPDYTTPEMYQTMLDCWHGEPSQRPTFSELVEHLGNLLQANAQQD
Summary of the method: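 Baculovirus-expressed human VEGF-R2Δ50 (residues 806-939/990-1171, E990V) was autophosphorylated with 3 mM ATP, 40 mM MgCl2 for 2 h at 4° C. ADP formation was coupled via PK/LDH to NADH oxidation, read at 340 nm, with 5.1 mM poly(E4Y1), 1 mM ATP, 25 mM MgCl2, Hepes pH 7.5. Ki came from activity across compound concentrations.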

[2] = tested on: human umbilical vein endothelial cells (HUVEC); assay: HUVEC proliferation assay; format: cell-based; details: Homo sapiens, HUVEC
Summary of the method: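 Exponentially growing HUVEC were serum-starved 24 h (F12K + 1% FBS), pre-treated 1 h with compound (0.1% DMSO final), then stimulated with 6 ng/ml VEGF. Proliferation was read 72 h later by MTT reduction (A595). IC50 came from seven 0.5-log concentrations in triplicate; screens gave % inhibition relative to VEGF-only and starved wells.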

[3] = target: T2, unphosphorylated VEGF-R2Δ50 (FLVK) (Homo sapiens, UniProt P35968, DEL940-989/E990V); assay: VEGF-R2 coupled spectrophotometric assay, unphosphorylated enzyme (FLVK); format: biochemical
T2 construct: VEGF-R2Δ50 contains residues 806-939 and 990-1171; made in house; host or cells: baculovirus/insect cells
T2 sequence (P35968 with tags, fused parts or gaps DEL940-989/E990V limits assumed): as above
Summary of the method: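 Unphosphorylated VEGF-R2Δ50 (5 to 40 nM) with 20 mM poly(E4Y1), 3 mM ATP, 60 mM MgCl2, 2 mM MnCl2 in 200 mM Hepes pH 7.5. ADP production coupled via PK/LDH to NADH oxidation, read at 340 nm. Ki from activity at varying compound concentrations.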

LCK tyrosine kinase [4] = target: T3, LCK tyrosine kinase (Homo sapiens, UniProt P06239, C224D/P223M); assay: LCK spectrophotometric assay; format: biochemical; details: for Ki: Table 3, first value of cells with two values
T3 construct: starting from amino acid residue 223 to the end of the protein at residue 509; made in house; host or cells: insect cells
T3 sequence (P06239 223-509 P223M/C224D): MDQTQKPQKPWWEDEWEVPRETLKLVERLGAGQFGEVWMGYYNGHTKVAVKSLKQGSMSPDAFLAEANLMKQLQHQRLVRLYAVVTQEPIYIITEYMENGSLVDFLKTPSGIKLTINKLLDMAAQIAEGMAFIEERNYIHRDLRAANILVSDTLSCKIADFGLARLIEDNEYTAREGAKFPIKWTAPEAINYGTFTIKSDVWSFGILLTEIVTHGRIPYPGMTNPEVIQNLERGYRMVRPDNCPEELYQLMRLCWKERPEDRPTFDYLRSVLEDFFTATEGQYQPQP
Description: LCK Construct for Assay: The LCK tyrosine kinase was expressed in insect cells as an N-terminal deletion starting from amino acid residue 223 to the end of the protein at residue 509, with the following two amino acid substitutions at the N-terminus: […] and C224D.
The spectrophotometric assay was carried out as described above for VEGF-R2, except for the following changes in concentration: LCK=60 nM, MgCl2=0 mM, poly(E4Y1)=20 mM.

[5] = tested on: lung cancer cells (line MV522); assay: Cancer cell proliferation (MV522) assay; format: cell-based
FGF-R1 = target: T4, FGF-R1 (Homo sapiens, UniProt P11362, C488A/C584S/L457V); assay: FGF-R spectrophotometric assay; format: biochemical; details: for FGF-R % inhibition @ 5: at 5 (head μM); for inhibition at 1 µM: Table 3, % inh @ 1 uM, read-out: FGF-P Ki (nM) (% inh @ 1 uM)
T4 construct: starting from the endogenous methionine residue 456 to glutamate 766; made in house; host or cells: baculovirus vector expression system
T4 sequence (P11362 456-766 L457V/C488A/C584S): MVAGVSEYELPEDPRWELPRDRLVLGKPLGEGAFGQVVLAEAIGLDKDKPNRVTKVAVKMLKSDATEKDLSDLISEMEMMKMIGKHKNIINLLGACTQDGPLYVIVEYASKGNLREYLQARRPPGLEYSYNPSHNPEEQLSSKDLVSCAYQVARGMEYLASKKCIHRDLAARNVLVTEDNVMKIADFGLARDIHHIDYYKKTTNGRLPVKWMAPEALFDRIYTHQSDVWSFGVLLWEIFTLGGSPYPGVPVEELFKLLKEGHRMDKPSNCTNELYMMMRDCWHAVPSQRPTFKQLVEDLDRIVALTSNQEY
Summary of the method: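 Kinase domain (Met456–Glu766, baculovirus-expressed) used at 50 nM in a spectrophotometric assay run as for VEGF-R2. Substrates were 2 mM ATP and 15 mM poly(E4Y1).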

FAKcd409 = target: T5, FAKcd409 (Homo sapiens, UniProt Q05397, P410T); assay: FAK HTS assay; format: biochemical; details: 10 uM compound, HTS Delphia assay
T5 construct: comprises residues methionine 409 to glutamate 689; made in house; host or cells: baculovirus vector expression system
T5 sequence (Q05397 409-689 P410T): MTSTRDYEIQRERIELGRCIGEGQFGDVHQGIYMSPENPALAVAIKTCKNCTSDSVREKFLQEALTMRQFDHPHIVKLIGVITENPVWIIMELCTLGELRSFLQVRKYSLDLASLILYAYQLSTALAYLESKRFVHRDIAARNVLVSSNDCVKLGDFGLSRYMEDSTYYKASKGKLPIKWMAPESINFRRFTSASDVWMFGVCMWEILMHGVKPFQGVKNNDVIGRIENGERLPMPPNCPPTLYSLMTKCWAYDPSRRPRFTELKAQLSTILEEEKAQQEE

CDK4/Cyclin D3 complex = target: T6, CDK4/Cyclin D3 complex (Homo sapiens, UniProt P11802); assay: CDK4/Cyclin D assay; format: biochemical; details: Table 2
T6 construct: made in house; host or cells: insect cells co-infected with baculovirus vectors
T6 sequence (P11802 whole entry): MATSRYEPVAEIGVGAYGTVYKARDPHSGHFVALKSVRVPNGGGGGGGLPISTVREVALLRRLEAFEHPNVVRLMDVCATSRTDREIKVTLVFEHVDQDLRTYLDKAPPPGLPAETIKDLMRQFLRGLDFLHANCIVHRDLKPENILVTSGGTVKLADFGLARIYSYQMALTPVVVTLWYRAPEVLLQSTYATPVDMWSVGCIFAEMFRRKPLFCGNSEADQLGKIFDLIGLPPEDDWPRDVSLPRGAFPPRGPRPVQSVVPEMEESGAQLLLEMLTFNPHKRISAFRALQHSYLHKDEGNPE
T6 sequence (P30281 whole entry partner): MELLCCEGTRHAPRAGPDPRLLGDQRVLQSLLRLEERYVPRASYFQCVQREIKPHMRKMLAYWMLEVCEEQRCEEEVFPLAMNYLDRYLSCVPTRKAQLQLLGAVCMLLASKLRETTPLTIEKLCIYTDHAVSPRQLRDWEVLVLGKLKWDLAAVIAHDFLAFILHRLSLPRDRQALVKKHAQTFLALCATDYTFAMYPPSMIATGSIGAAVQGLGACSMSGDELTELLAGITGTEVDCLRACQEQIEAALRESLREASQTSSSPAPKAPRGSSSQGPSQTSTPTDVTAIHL
Summary of the method: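 Insect-cell-expressed CDK4/cyclin D3 (50 nM) phosphorylating His-tagged Rb fragment (residues 386-928) with 25 μM [^32P]ATP in HEPES pH 7.4, MgCl2, 2% DMSO; 20 min at 30 °C, EDTA stop. Filter-captured 32P by phosphorimager; apparent Ki from competitive or tight-binding inhibition fits.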

CDK2/Cyclin A complex = CDK2/Cyclin A complex (Homo sapiens, UniProt P24941); assay: CDK2/Cyclin A assay; format: biochemical; details: Table 2
Summary of the method: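 Radiometric assay: 150 nM CDK2/cyclin A (insect-cell CDK2, truncated cyclin A) phosphorylates His-tagged Rb fragment (residues 386-928) with 25 μM ATP plus [32P]ATP, pH 7.4 HEPES, 2% DMSO, 30 °C for 20 min. Filter-captured product counted by phosphorimager; apparent Ki from competitive or tight-binding inhibition fits.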

LCK tyrosine kinase [6] = target: T3, LCK tyrosine kinase; assay: LCK spectrophotometric assay; format: biochemical; details: Table 3, read-out: LCK (% inh @ 1 uM)
CHK1 = target: T7, CHK1 (Homo sapiens, UniProt O14757); assay: CHK1 high-throughput screening; format: biochemical; details: for inhibition at 20 µM: read-out: % inhibition @ 20 μM, Table 4, repeated entries per example
T7 sequence (O14757 1-476): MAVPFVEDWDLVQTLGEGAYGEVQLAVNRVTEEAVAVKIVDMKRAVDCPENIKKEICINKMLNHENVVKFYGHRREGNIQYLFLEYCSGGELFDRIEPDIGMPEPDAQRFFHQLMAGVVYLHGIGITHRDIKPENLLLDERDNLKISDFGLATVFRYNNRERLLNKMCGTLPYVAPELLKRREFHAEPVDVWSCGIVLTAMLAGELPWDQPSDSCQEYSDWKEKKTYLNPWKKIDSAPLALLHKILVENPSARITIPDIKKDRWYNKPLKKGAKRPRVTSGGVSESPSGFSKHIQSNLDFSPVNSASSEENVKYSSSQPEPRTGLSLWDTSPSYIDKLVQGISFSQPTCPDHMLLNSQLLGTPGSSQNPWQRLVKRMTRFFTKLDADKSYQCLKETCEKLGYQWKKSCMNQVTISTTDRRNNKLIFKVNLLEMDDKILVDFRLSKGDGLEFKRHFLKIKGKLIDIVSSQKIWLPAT

[7] = target: T8, phosphorylated VEGF-R2Δ50 (Homo sapiens, UniProt P35968, DEL940-989/E990V); assay: VEGF-R2 ELISA assay; format: biochemical; details: Table 2; * determined with ELISA assay; read-out: FLVK-P Ki
T8 construct: VEGF-R2Δ50 contains residues 806-939 and 990-1171; made in house; host or cells: baculovirus/insect cells
T8 sequence (P35968 with tags, fused parts or gaps DEL940-989/E990V limits assumed): as the sequence (P35968 with tags, fused parts or gaps DEL940-989/E990V limits assumed) above
Summary of the method: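 Pre-autophosphorylated human VEGF-R2Δ50 (residues 806-939/990-1171, E990V; baculovirus) at 0.8 nM was run with 2 μM biotin-gastrin(1-17), 20 μM ATP, 26 mM MgCl2, 2 mM MnCl2, pH 7.5 Hepes. Phosphopeptide was captured on streptavidin and detected by anti-pTyr-HRP/ABTS at 405 nm; Ki came from activity at varying compound concentrations.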

[8] = Table 3, some entries 'Slow binder'

Row | SMILES | melting point | Ki ([1]; Table 2) [nM] | FGF-R % inhibition @ 5 (FGF-R1; Table 2) [% @] | % inhibition of FAK (FAKcd409; 10 µM) | Ki (CDK4/Cyclin D3 complex) [nM] | Ki (CDK2/Cyclin A complex) [nM] | IC50 ([2]; Table 3) [nM] | inhibition at 1 µM (LCK tyrosine kinase [6]) [%] | inhibition at 1 µM (FGF-R1) [%] | Ki (LCK tyrosine kinase [4]) [nM] | other results
1 | CC(=O)Nc1nc(N)c(-c2nc(-c3cccc(NC(=O)c4ccccc4)c3)cs2)s1 [F(9), N-[3-(2′-Acetylamino-4′-amino-[2,5′]bithiazolyl-4-yl)-phenyl]benzamide] |  |  |  |  |  |  |  |  |  |  | Ki ([1]; Table 1): 7.8 nM; IC50 ([2]; Table 1): 21 nM; Ki ([3]; Table 1): 9.6 nM; inhibition at 1 µM (LCK tyrosine kinase [4]; Table 1, 1 μM): 12%; IC50 ([5]; MV522, Table 1): > 10000 nM
2 | COc1cc(Nc2nc(N)c(-c3nc(-c4ccccc4O)cs3)s2)cc(OC)c1OC [A(23), 2-[4′-Amino-2′-(3,4,5-trimethoxy-phenylamino)-[2,5′]bithiazolyl-4-yl]-phenol] | 186 to 190 °C (dec.) | 39 | 47 | −5% and −6% and 4% |  |  |  |  |  |  | LCK % inhibition @ 5 (LCK tyrosine kinase [4]; Table 2, at 5 (head μM)): 34% @
3 | COc1cc(Nc2nc(N)c(-c3nc(-c4ccc(O)c(O)c4)cs3)s2)cc(OC)c1OC [A(12), 4-[4′-Amino-2′-(3,4,5-trimethoxy-phenylamino)-[2,5′]bithiazolyl-4-yl]-benzene-1,2-diol] | 132 to 137 °C (dec.) | 34 |  |  | 2700 | 6700 |  |  |  |  | Ki (FGF-R1; Table 2): 190000 nM; % inhibition of FAK (FAKcd409): −16%
4 | COc1cccc(C(=O)Nc2ccc(Cl)c(-c3noc(-c4sc(Nc5cc(OC)c(OC)c(OC)c5)nc4N)n3)c2)c1 [D(65), N-(3-{5-[4-Amino-2-(3,4,5-trimethoxy-phenylamino)-thiazol-5-yl]-[1,2,4]oxadiazyl}-4-chloro-phenyl)-3-methoxy-benzamide] |  |  |  |  |  |  | 4.3 | 91 | 37 | 9.3 | Ki [3, 8]: 1 nM; IC50 ([5]; MV522, Table 3): 2100 nM
5 | COc1cc(Nc2nc(N)c(-c3nc(-c4cc(O)ccc4Br)cs3)s2)cc(OC)c1OC [A(26), 3-[4′-Amino-2′-(3,4,5-trimethoxy-phenylamino)-[2,5′]bithiazolyl-4-yl]-4-bromophenol] | 214 to 216 °C | 14 | 52 |  |  |  |  |  |  |  | IC50 ([2]; Table 2): > 1000 nM; % inhibition of FAK (FAKcd409): 72%; IC50 ([5]; MV522, Table 2): 7500 nM; inhibition at 20 µM (CHK1): 42.5%
6 | COc1cc(Nc2nc(N)c(-c3nc(-c4ccc(O)cc4)cs3)s2)cc(OC)c1OC [A(10), 4-[4′-Amino-2′-(3,4,5-trimethoxy-phenylamino)-[2,5′]bithiazolyl-4-yl]-phenol] | 129 to 133 °C (dec.) | 28 | 45 | −2% and −5% and −4% | 9100 | 13400 |  |  |  |  | 
7 | COc1cc(Nc2nc(N)c(-c3nc(-c4cc(NC(=O)c5cccc(Cl)c5)ccc4Cl)no3)s2)cc(OC)c1OC [D(64)] |  |  |  |  |  |  | 10 to 100 | 94 | 84 | 3.2 | Ki [3, 8]: 1.4 nM; IC50 ([5]; MV522, Table 3): 2000 nM
8 | Cc1nc(-c2sc(Nc3ccc(S(N)(=O)=O)cc3)nc2N)sc1Cc1ccc(F)cc1 [A(15), 4-[4′-Amino-5-(4-fluoro-benzyl)-4-methyl-[2,5′]bithiazolyl-2′-ylamino]-benzenesulfonamide] | 130 to 135 °C (dec.) |  |  | −9% and −7% and 0% | 7800 | 2700 |  |  |  |  | % inhibition @ 20 μM (CHK1; Table 4, repeated entries per example, 20 µM): −4.1% and −1.2%; Ki [7]: 25000 nM
9 | COc1cc(Nc2nc(N)c(-c3nc(-c4cc(O)cc(O)c4)cs3)s2)cc(OC)c1OC [A(18), 5-[4′-Amino-2′-(3,4,5-trimethoxy-phenylamino)-[2,5′]bithiazolyl-4-yl]-benzene-1,3-diol] | 198 to 202 °C |  | 38 | 32% and 29% |  |  |  |  |  |  | inhibition at 10 µM (FAKcd409): 25%; inhibition at 20 µM (CHK1): 60.8%
10 | COc1cc(Nc2nc(N)c(-c3nc(-c4cc(NC(=O)c5cccc(Cl)c5)ccc4C)no3)s2)cc(OC)c1OC [D(75), 3-[3-[(3-chlorobenzoyl)amino]-6-methyl-phenyl]-5-[2-[(3,4,5-trimethoxyphenyl)amino]-4-amino-5-thiazolyl]-1,2,4-oxadiazole] |  |  |  |  |  |  | 7.8 | 97 | 64 | 1.1 | 
